The text below walks through data of PMC3984115 (PLoS ONE, 2014).

The subject of assay [1] is nAChRs in monkey adrenal chromaffin cells. The assay can be described thus: Agonist-evoked currents, perforated-patch patch-clamp, monkey adrenal chromaffin cells. It counts as cell-based, monkey (Macaca mulatta). The following applies: for current amplitude (choline comparison cells): 10 mM choline versus 300 μM ACh in the same cells. On the technique in general: In patch-clamp work, channel activity is measured electrically.

The target in another assay is T1, human α6/α3β4 nAChR (Homo sapiens, UniProt P30926+P32297+Q15825).
T1 construct: expressed in transfected cells; host or cells: Xenopus laevis oocytes (cRNA injection, 1:1 ratio)
It counts as cell-based.

Assay [2] concerns heteromeric receptor subtypes that contain the β2 subunit. Further details: method as in PMID 10692507. To be noted: β2-containing heteromeric receptors; ref [38]; cited from earlier work.
In a further assay the test system is M. mulatta α7 nAChRs. To be noted: heterologously expressed M. mulatta α7; ref [37]; cited from earlier work.
For assay [3], the system named is release of dopamine from dopaminergic terminals of rat striatal neurons. The following applies: cited from earlier work.
Assay [4] relates to release of dopamine from dopaminergic terminals of mouse striatal neurons. To be noted: cited from earlier work.

Several values for one entry are separate records, joined by “and”; a condition that tells them apart may be missing. Equal values may be shown once. Read-outs that look alike come from different tables or passages of the source. Where no end group is shown, it is not given here.

T1 sequence (P30926 whole entry, looked up): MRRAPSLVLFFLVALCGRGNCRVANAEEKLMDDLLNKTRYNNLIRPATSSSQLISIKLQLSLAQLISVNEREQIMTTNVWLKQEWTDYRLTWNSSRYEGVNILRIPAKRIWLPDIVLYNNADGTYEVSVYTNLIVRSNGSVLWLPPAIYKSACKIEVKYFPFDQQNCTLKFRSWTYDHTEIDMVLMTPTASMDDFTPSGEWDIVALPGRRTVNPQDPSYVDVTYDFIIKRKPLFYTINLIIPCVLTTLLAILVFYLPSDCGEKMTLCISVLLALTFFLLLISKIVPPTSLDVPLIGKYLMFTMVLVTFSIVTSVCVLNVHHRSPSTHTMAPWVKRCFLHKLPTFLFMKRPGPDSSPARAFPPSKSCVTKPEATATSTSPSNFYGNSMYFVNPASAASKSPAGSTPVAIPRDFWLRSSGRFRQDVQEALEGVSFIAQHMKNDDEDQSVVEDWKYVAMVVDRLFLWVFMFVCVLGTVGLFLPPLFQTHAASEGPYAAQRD
T1 sequence (P32297 whole entry, looked up): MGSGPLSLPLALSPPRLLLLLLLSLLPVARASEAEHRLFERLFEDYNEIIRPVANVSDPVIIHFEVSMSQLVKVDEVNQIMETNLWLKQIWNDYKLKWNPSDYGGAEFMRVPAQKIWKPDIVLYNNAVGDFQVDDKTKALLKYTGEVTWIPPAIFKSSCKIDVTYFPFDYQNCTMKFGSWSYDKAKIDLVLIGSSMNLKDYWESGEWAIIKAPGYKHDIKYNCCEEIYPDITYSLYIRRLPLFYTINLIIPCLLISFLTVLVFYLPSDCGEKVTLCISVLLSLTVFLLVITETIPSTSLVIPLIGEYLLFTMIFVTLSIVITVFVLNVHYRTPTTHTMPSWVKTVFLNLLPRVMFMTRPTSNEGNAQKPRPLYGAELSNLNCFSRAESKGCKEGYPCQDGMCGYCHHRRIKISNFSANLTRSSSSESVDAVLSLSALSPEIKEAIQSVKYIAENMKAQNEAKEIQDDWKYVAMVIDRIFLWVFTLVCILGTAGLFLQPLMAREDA
T1 sequence (Q15825 whole entry, looked up): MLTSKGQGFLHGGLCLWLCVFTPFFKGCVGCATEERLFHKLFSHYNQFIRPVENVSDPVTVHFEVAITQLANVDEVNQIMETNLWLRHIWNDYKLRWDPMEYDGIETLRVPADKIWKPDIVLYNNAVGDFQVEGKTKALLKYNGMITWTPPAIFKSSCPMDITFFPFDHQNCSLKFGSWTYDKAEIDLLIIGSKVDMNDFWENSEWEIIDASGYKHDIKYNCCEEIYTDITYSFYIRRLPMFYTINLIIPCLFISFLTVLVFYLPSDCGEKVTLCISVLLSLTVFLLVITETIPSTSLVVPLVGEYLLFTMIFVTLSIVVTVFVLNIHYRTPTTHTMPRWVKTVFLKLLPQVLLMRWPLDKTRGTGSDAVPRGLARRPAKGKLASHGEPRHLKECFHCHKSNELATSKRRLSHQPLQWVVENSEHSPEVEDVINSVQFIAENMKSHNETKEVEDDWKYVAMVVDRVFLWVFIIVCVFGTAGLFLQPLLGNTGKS

As to `Ic1cncc(OC[C@@H]2CCN2)c1` [5-I-A-85380], in assay [1], the “efficacy versus 300 μM ACh, in words” value is “more efficacious than 300 μM ACh” and the “response to agonist, in words” value was “responded”. Further, in assay [1] (n = 4), the “current amplitude (5-I-A-85380 comparison cells)” value amounted to 1088±120 pA, the “current amplitude relative to ACh (printed "% larger than the currents evoked by ACh")” value is on record as 170±16% and the current density was found to be 256±28 pA/pF. Also, at human α6/α3β4 nAChR, the “current amplitude as % of that produced by 300 μM ACh in the same cells” value is 100±12.1% and 100±12%; the “efficacy versus 300 μM ACh, in words” value was “as efficacious as 300 μM ACh”. Further, the affinity in words result in assay [2] was “high affinity”.

Regarding `CC(=O)OCC[N+](C)(C)C` [ACh, acetylcholine], the “current amplitude (5-I-A-85380 comparison cells)” value in assay [1] (100 μM 5-I-A-85380 versus 300 μM ACh in the same cells, n = 4, ± S.E.M.) was 657± 97 pA. This compound also returned a current density in assay [1] (100 μM 5-I-A-85380 versus 300 μM ACh in the same cells, n = 4, ± S.E.M., difference not statistically significant, p = 0.0625) of 149±22 pA/pF. Also, the peak current amplitude in assay [1] (300 μM ACh, mean ± S.D.M, n = 18, holding potential −80 mV, 200 ms pulses) amounted to 865 ± 387 pA. Also, the “current amplitude (choline comparison cells)” value in assay [1] (n = 4, ± S.E.M.) was 1245±238 pA.

In the case of `C[N+](C)(C)CCO` [choline], in assay [1] (n = 4, ± S.E.M.), the “current amplitude (choline comparison cells)” value amounted to 21±4 pA. Further, the “current amplitude as % of response evoked by 300 μM ACh in the same cells” value in assay [1] (10 mM choline, n = 4, ± S.E.M., holding potential −80 mV) turned out to be 1.7±0.1%. The “response to agonist, in words” value in assay [1] (cells with currents evoked by acetylcholine) is listed as “relatively unresponsive”. Also, the “agonist activity in words” value in the assay with M. mulatta α7 nAChRs was “full agonist”.

Consider “α-Ctx MII (GCCSNPVCHLEHSNLC; ends and bridges not checked; cysteine pairing not given here; UniProt P56636 49-64, looked up)”, for which the “sensitivity of dopamine release to toxin, in words” value in assay [3] and in assay [4] was “sensitive” throughout.
